Consider two molecules from patent publication US11260127B2, “Mesoporous silica nanoparticles for diagnostic and therapeutic applications” (CASE WESTERN RESERVE UNIVERSITY, priority 2017, dated 2022).

SMILES strings stand for the structures.

The nature of the series: In vitro RF-triggered drug release from Fe@MSN nanoparticles. Type of series: physicochemical. The note with it: for drug release rate of two drugs compared: release from Fe@MSN under the same RF field. As for the experimental part: FIGS. 2(A-E) illustrate in vitro evaluation of radiofrequency (RF)-triggered drug release from Fe@MSN nanoparticles. (A) The release of DOX was triggered from Fe@MSN particles using an RF field at different frequencies (1, 20, 50 and 380 kHz; n=4). […] (C) Effect of elevated temperature on the drug release from Fe@MSN particles with an incubation time of 60 min (n=4; unpaired t-test P<0.0001). (D) Drug release from Fe@MSN at different particle concentration under an RF field at 50 kHz. (E) Drug release from Fe@MSN particles at different depths in the RF source (RF field: 50 kHz).
Further, when the temperature of the Fe@MSN suspension was elevated to 60° C. for 60 min by external heating, negligible drug was released ([…]). These two findings indicate that the triggered release mechanism is not based on hyperthermic effects applications, thereby minimizing the role of Neel relaxation phenomenon in RF-triggered drug release from the Fe@MSN nanoparticles.
Similar drug release rate per nanochain particle was observed from suspensions of dramatically different concentrations of Fe@MSN nanoparticles when subjected to the same RF field.
The RF-triggered drug release is nearly independent of the type of drug molecules.

For `CC(=N)NCc1cccc(CN)c1` [1400 W], the “drug release rate of two drugs compared” value is given as “almost identical”.

As to `COc1cccc2c1C(=O)c1c(O)c3c(c(O)c1C2=O)C[C@@](O)(C(=O)CO)C[C@@H]3O[C@H]1C[C@H](N)[C@H](O)[C@H](C)O1` [DOX, doxorubicin], the “drug release rate of two drugs compared” value is given as “almost identical”. The “RF-triggered drug release rate” value (RF field, very low Fe@MSN concentration, 1 or 10 kHz) is reported as “triggered in a controlled manner”.
